Source: paper PMC5266331, “Novel PARP-1 Inhibitor Scaffolds Disclosed by a Dynamic Structure-Based Pharmacophore Approach” (PLoS ONE, 2017)

Biological target: T1, PARP-1 (Homo sapiens, UniProt P09874)
T1 construct: gene PARP1
Experiment: HT Universal Colorimetric PARP Assay kit (histone-coated wells, biotinylated poly(ADP-ribose))
Type: biochemical

T1 sequence (P09874 2-1014): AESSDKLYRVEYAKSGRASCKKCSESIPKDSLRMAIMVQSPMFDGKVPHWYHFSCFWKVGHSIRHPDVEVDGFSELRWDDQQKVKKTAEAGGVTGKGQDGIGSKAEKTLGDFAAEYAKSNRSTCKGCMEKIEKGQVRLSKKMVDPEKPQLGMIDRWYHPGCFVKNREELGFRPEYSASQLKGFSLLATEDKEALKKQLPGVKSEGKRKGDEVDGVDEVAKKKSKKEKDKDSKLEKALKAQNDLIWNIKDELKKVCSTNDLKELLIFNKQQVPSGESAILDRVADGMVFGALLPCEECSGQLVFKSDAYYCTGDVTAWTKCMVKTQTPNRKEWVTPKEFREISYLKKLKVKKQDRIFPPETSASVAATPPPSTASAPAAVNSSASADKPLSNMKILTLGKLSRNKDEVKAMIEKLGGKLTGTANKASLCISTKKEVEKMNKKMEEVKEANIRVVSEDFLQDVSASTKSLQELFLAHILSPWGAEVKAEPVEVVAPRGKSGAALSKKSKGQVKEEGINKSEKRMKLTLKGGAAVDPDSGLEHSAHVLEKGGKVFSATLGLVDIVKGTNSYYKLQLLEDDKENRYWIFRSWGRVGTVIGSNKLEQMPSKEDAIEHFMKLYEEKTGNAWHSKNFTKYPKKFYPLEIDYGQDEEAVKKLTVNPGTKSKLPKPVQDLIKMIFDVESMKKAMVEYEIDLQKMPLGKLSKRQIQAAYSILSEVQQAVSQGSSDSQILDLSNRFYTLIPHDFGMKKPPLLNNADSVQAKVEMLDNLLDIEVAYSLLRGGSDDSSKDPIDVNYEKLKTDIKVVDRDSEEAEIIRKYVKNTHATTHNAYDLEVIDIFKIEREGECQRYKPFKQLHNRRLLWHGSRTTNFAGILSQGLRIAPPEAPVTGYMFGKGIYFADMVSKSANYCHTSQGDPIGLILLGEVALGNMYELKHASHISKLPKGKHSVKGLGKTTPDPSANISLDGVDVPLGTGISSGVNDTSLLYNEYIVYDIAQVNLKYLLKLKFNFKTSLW

`COc1ccc2c(c1O)CNCC2c1ccc(O)c(O)c1` (stereo not shown) [NSC131753] showed an IC50 of 0.24 µM.
